Assay results published in US20260259169A1, “BETA-LACTAMASE SUBSTRATE COMPOUNDS AND ELECTROCHEMICAL DETECTION METHODS USING THEM” (priority 2023, published 2026).

Tests used:
[1] = target: KPC (Klebsiella pneumoniae, UniProt Q9F663); assay: Amperometric measurement of oxidation current with KPC in TPTZ buffer; format: biochemical; conditions: 30 minutes at 37° C.
Procedure: A medium comprising 1.2 mM of substrate in a succinate buffer of pH 5.5 was prepared for each of the 8 beta-lactamase substrate compounds (7 inventive ones and the HMRZ-86 reference one).
4 different samples to be analyzed were prepared, each comprising KPC as beta-lactamase in a standard 2,4,6-tri-2-pyridinyl-1,3,5-triazine (TPTZ) buffer but in different concentrations: 239.4, 59.85, 9.975 and 4.985 ng/ml (ng of KPC per mL of TPTZ buffer). The two first concentrations of KPC aim to determine the capacity of the derivative to detect the presence of beta-lactamase whereas the two lowest concentrations aim to address the limit of detection.
Each of the […] (in other words 32 combinations) and incubated for 30 minutes at 37° C. Next, an amperometric measurement was performed on all 32 of the incubated mediums, and the oxidation current was determined. The device used was a Metrohm Dropsens and the electrodes were Metrohm Dropsens SCPE 110 electrodes. The oxidation current is the maximum current value measured between 0.1 V and 0.5 V vs. Ag/AgCl.
To test the impact of the concentration of the beta-lactamase substrate compound on the possibility to detect beta-lactamases, a further medium comprising 2.4 mM of the beta-lactamase substrate compound with R being 2-nitro-4-cyanophenyl was prepared. […] The same four beta-lactamase concentrations as in Example 1 were tested (i.e. the same samples). The incubation and measurement were performed as in Example 1.
A medium comprising 6.0 mM of each substrate in a succinate buffer of pH 5.5 was prepared. 2 different samples to be analyzed were prepared, each comprising KPC as beta-lactamase type in a standard 2,4,6-tri-2-pyridinyl-1,3,5-triazine (TPTZ) buffer, but in different concentrations: 239.4 ng/ml and 59.85 ng/ml, respectively (ng of KPC per mL of TPTZ buffer). Each of the […] was added to each of the 2 mediums (in other words 6 combinations) and incubated for 30 minutes at 37° C. Next, an amperometric measurement was performed on all 6 of the incubated mediums, and the oxidation current was determined. The equipment used was the same as that of Example 1.

[2] = target: CTX-M-14 (Escherichia coli, UniProt Q9L5C7); assay: Reactivity with recombinant enzyme, amperometric; format: biochemical; conditions: class A ESBL, protein; CF3 compound 2.4 mM, HMRZ-86 1.2 mM; 10 minutes at 37° C.
[3] = target: CTX-M-15 (Escherichia coli, UniProt Q9EXV5); assay: Reactivity with recombinant enzyme, amperometric; format: biochemical; conditions: class A ESBL, protein; CF3 compound 2.4 mM, HMRZ-86 1.2 mM; 10 minutes at 37° C.
[4] = target: CTX-M-25 (Escherichia coli, UniProt Q8KSA6); assay: Reactivity with recombinant enzyme, amperometric; format: biochemical; conditions: class A ESBL, protein; CF3 compound 2.4 mM, HMRZ-86 1.2 mM; 10 minutes at 37° C.
[5] = target: KPC-33 (Klebsiella pneumoniae, UniProt Q9F663, D178Y); assay: Reactivity with recombinant enzyme, amperometric; format: biochemical; conditions: class A carbapenemase, protein; CF3 compound 2.4 mM, HMRZ-86 1.2 mM; 10 minutes at 37° C.
[6] = target: IMP-1 (Serratia marcescens, UniProt P52699); assay: Reactivity with recombinant enzyme, amperometric; format: biochemical; conditions: class B metallo-beta-lactamase, protein; CF3 compound 2.4 mM, HMRZ-86 1.2 mM; 10 minutes at 37° C.
[7] = system: IMP-3; assay: Reactivity with recombinant enzyme, amperometric; format: biochemical; conditions: class B metallo-beta-lactamase, protein; CF3 compound 2.4 mM, HMRZ-86 1.2 mM; 10 minutes at 37° C.
[8] = system: IMP-4; assay: Reactivity with recombinant enzyme, amperometric; format: biochemical; conditions: class B metallo-beta-lactamase, protein; CF3 compound 2.4 mM, HMRZ-86 1.2 mM; 10 minutes at 37° C.
[9] = system: IMP-11; assay: Reactivity with recombinant enzyme, amperometric; format: biochemical; conditions: class B metallo-beta-lactamase, protein; CF3 compound 2.4 mM, HMRZ-86 1.2 mM; 10 minutes at 37° C.
[10] = system: IMP-22; assay: Reactivity with recombinant enzyme, amperometric; format: biochemical; conditions: class B metallo-beta-lactamase, protein; CF3 compound 2.4 mM, HMRZ-86 1.2 mM; 10 minutes at 37° C.
[11] = system: VIM-5; assay: Reactivity with recombinant enzyme, amperometric; format: biochemical; conditions: class B metallo-beta-lactamase, protein; CF3 compound 2.4 mM, HMRZ-86 1.2 mM; 10 minutes at 37° C.
[12] = system: VIM-11; assay: Reactivity with recombinant enzyme, amperometric; format: biochemical; conditions: class B metallo-beta-lactamase, protein; CF3 compound 2.4 mM, HMRZ-86 1.2 mM; 10 minutes at 37° C.
[13] = system: VIM-13; assay: Reactivity with recombinant enzyme, amperometric; format: biochemical; conditions: class B metallo-beta-lactamase, protein; CF3 compound 2.4 mM, HMRZ-86 1.2 mM; 10 minutes at 37° C.
[14] = target: OXA-23 (Acinetobacter baumannii, UniProt Q9L4P2); assay: Reactivity with recombinant enzyme, amperometric; format: biochemical; conditions: class D carbapenemase, protein; CF3 compound 2.4 mM, HMRZ-86 1.2 mM; 10 minutes at 37° C.
[15] = system: OXA-58; assay: Reactivity with recombinant enzyme, amperometric; format: biochemical; conditions: class D carbapenemase, protein; CF3 compound 2.4 mM, HMRZ-86 1.2 mM; 10 minutes at 37° C.
[16] = system: OXA-51; assay: Reactivity with recombinant enzyme, amperometric; format: biochemical; conditions: class D carbapenemase, protein; CF3 compound 2.4 mM, HMRZ-86 1.2 mM; 10 minutes at 37° C.
[17] = system: OXA-163; conditions: class D carbapenemase, protein; CF3 compound 2.4 mM, HMRZ-86 1.2 mM; 10 minutes at 37° C.
[18] = NMR stability study in relation to a 22 mM succinate buffer reference; format: physicochemical
Procedure: The stability of the beta-lactamase substrate compounds over time at different temperatures was tested the reference HMRZ-86 of example 1 (at 1.2 mM) and the beta-lactamase substrate compound with R being 2-nitro-4-cyano of Example 1 (at 2.4 mM).
The stability of both beta-lactamase substrate compounds was also tested in relation to a 22 mM succinate buffer reference. […] Contrary to the dimethylformamide (DMF) reference, the degradation in relation to the succinate buffer was similar for both substrate compounds, with the first degradation starting after 2 weeks at both temperatures.

Q: Which “detection of the lowest tested concentration of KPC” value ([1]; 6.0 mM substrate, KPC 59.85 ng/ml) does the source give for N#Cc1ccc(C=CC2=C(C(=O)O)N3C(=O)C(NC(=O)C(F)(F)F)C3SC2)cc1 (centres unmarked) [CF3] here?
A: Its value is “capable to detect”.

Q: What about the “detection of the highest concentration of KPC” value ([1]; 6.0 mM substrate, KPC 239.4 ng/ml) of the same compound?
A: The value was “capable to detect”.

Q: And the “reactivity (detection)” value [2]?
A: Its value is “Detected”.

Q: What about the “reactivity (detection)” value [3] of the same compound?
A: The value was “Detected”.

Q: What about the “reactivity (detection)” value [4] of the same compound?
A: Its value is “Detected”.

Q: And the “reactivity (detection)” value [5]?
A: Its value is “Detected”.

Q: What about the “reactivity (detection)” value [6] of the same compound?
A: Its value is “Detected”.

Q: What about the “reactivity (detection)” value [7] of the same compound?
A: The value was “Detected”.

Q: What about the “reactivity (detection)” value [8] of the same compound?
A: Its value is “Detected”.

Q: What about the “reactivity (detection)” value [9] of the same compound?
A: The value was “Detected”.

Q: What about the “reactivity (detection)” value [10] of the same compound?
A: The value was “Detected”.

Q: What about the “reactivity (detection)” value [11] of the same compound?
A: Its value is “Detected”.

Q: And the “reactivity (detection)” value [12]?
A: Its value is “Detected”.

Q: What about the “reactivity (detection)” value [13] of the same compound?
A: The value was “Detected”.

Q: What about the “reactivity (detection)” value [14] of the same compound?
A: The value was “Detected”.

Q: And the “reactivity (detection)” value [15]?
A: Its value is “Detected”.

Q: What about the “reactivity (detection)” value [16] of the same compound?
A: Its value is “Detected”.

Q: What about the “reactivity (detection)” value [17] of the same compound?
A: The value was “Detected”.

Q: Which “detection of the beta-lactamases (oxidation current): KPC concentrations detected” value ([1]; 1.2 mM substrate, succinate buffer pH 5.5, KPC 239.4, 59.85, 9.975 and 4.985 ng/ml) does the source give for CC(C)(ON=C(C(=O)N[C@@H]1C(=O)N2C(C(=O)O)=C(C=Cc3ccc([N+](=O)[O-])cc3[N+](=O)[O-])CS[C@H]12)c1csc(N)n1)C(=O)O.O=C(O)C(F)(F)F [HMRZ-86, reference compound] here?
A: The value was “all 4 concentrations”.

Q: What about the “detection of the beta-lactamase concentration of 9.975 ng/mL” value ([1]; 1.2 mM substrate, KPC 9.975 ng/mL) of the same compound?
A: The value was “could detect”.

Q: And the “time at which the first degradation starts” value ([18]; 4° C.)?
A: The value was 2 weeks.

Q: And the “time at which the first degradation starts” value ([18]; 20° C.)?
A: Its value is 2 weeks.

Q: And the “reactivity (detection)” value [2]?
A: Its value is “Detected”.

Q: What about the “reactivity (detection)” value [3] of the same compound?
A: The value was “Detected”.

Q: And the “reactivity (detection)” value [4]?
A: Its value is “Detected”.

Q: And the “reactivity (detection)” value [5]?
A: Its value is “Detected”.

Q: And the “reactivity (detection)” value [6]?
A: The value was “Detected”.

Q: What about the “reactivity (detection)” value [7] of the same compound?
A: The value was “Detected”.

Q: And the “reactivity (detection)” value [8]?
A: Its value is “Detected”.

Q: And the “reactivity (detection)” value [9]?
A: The value was “Detected”.

Q: And the “reactivity (detection)” value [10]?
A: The value was “Detected”.

Q: And the “reactivity (detection)” value [11]?
A: Its value is “Detected”.

Q: And the “reactivity (detection)” value [12]?
A: The value was “Detected”.

Q: What about the “reactivity (detection)” value [13] of the same compound?
A: Its value is “Detected”.

Q: And the “reactivity (detection)” value [14]?
A: Its value is “Not detected”.

Q: What about the “reactivity (detection)” value [15] of the same compound?
A: Its value is “Not detected”.

Q: What about the “reactivity (detection)” value [16] of the same compound?
A: Its value is “Not detected”.

Q: And the “reactivity (detection)” value [17]?
A: Its value is “Detected”.
